Assay results taken from patent publication US12691102B2, “Composition for preventing or treating chronic kidney disease, comprising compound that induces expression of anti-aging gene klotho” (KLOTHO SCIENCES, priority 2021, dated 2026).

What was measured:
[1] = tested on: promoter of the human klotho gene; experiment: Luciferase expression experiment, human klotho promoter reporter (1.7 kbp or 240 bp) in RPTEC cells; format: cell-based; settings: 5 μM, 24 hours, promoter 1.7 kbp or 240 bp, among Comparative Examples 1 to 4, FIG. 1
Method: (§1) In order to evaluate whether the klotho gene was expressed by the evaluation of luciferase activity, human renal proximal tubule epithelial cells (RPTECs) (ATCC CRL-4031), which are epithelial cells of the proximal tubule of the human kidneys, were purchased from Lonza, USA and used.
(§2) For culturing, a Renal Epithelial Growth Medium (REGM™) Bullet kit, also manufactured by the same Lonza company, was used, and the cells were cultured under conditions of 37° C. and 5% CO2. As a plasmid for luciferase expression, a plasmid in which the promoter site of a human KL (klotho) gene was disposed to regulate the expression of a firefly luciferase gene was used.
The plasmid was incorporated into cells using an X-treme GENE transfection reagent from Roche. The activity of luciferase expressed in cells was measured using a Dual-Luciferase reporter assay system manufactured by Promega. After the cultured cells were treated with each compound at an indicated concentration for 24 hours, the activity of luciferase was measured. It is indirectly shown that the expression of the klotho gene may be increased when the activity of luciferase is high. […]

[2] = tested on: promoter of the human klotho gene; experiment: Luciferase expression experiment, reporter gene pHKP-luc (promoter up to -2.1 kb upstream of human klotho gene) in RPTECs; format: cell-based
Method: as §1, §2
The plasmid was incorporated into cells using an X-treme GENE transfection reagent from Roche. The activity of luciferase expressed in cells was measured using a Dual-Luciferase reporter assay system manufactured by Promega. After the cultured cells were treated with each compound at an indicated concentration for 24 hours, the activity of luciferase was measured. It is indirectly shown that the expression of the klotho gene may be increased when the activity of luciferase is high.
The results of confirming the expression of a reporter gene by treating RPTECs, which are epithelial cells of the proximal tubule of the human kidneys, with Examples 1 to 6 at concentrations of 0.5, 1 and 5 μM and Comparative Example 1 at a concentration of 5 μM and using a reporter gene (pHKP-luc) including a promoter included up to −2.1 kb upstream of the human klotho gene are illustrated in FIGS. 2 and 3.

klotho (KL) gene [3] = experiment: Quantitative evaluation of klotho (KL) gene expression level using real-time PCR in RPTEC cells; format: cell-based, human; settings: treated for 6 hours, FIG. 4
Method: For RNA extraction from RPTEC cells, which are epithelial cells of the proximal tubule of the human kidneys, treated with the compounds of Comparative Example 1 and Examples 1 and 2 for 6 hours, an RNeasy kit from Qiagen Inc. was used. The results of preparing cDNA from extracted RNA using a Superscript II kit from Thermo Fisher Scientific, Inc. and performing the quantitative evaluation using Taqman Gene Expression assays from Applied Biosystems as a klotho (KL) gene-specific kit are illustrated in FIG. 4.

klotho (KL) gene [4] = experiment: Quantitative evaluation of klotho (KL) gene expression level using general PCR in RPTEC cells; format: cell-based, human; settings: 2.5 μM, 6 hours, FIG. 5
Method: After RPTEC cells, which are epithelial cells of the proximal tubule of the human kidneys, were each treated with the compounds of Examples 7 to 10 at 2.5 μM for 6 hours, RNA was extracted from the cells, and cDNA was prepared from the extracted RNA using a Superscript II kit from Thermo Fisher Scientific, Inc., and then general PCR was performed.
Information on the primers used in the experiment is as follows. • KL-F […] (SEQ ID NO: 1) • KL-R […] (SEQ ID NO: 2) • GAPDH-F […] (SEQ ID NO: 3) • GAPDH-R […] (SEQ ID NO: 4)
The DNA amplified by PCR was confirmed by staining with ethidium bromide after electrophoresis on an agarose gel, and the amounts of DNA in the band were quantitatively compared using the SPEedyQuant program, and are illustrated in FIG. 5.

[5] = tested on: human kidney-2 (HK2) cells; experiment: Toxicity test (EZ-Cytox) in HK2 cells; format: cell-based; settings: 12.5 μM or 25 μM, 24 hours, FIG. 6
Method: Cultured human kidney-2 (HK2) cells were treated with Comparative Example 1, Example 2 and Examples 9 to 10 at a concentration of 25 μM or 12.5 μM, and after 24 hours, cytotoxicity was measured using an EZ-Cytox kit.

klotho protein = experiment: Klotho protein expression level in cisplatin-treated HK-2 cells; format: cell-based, human; settings: FIG. 7B
Method: As in the protocol in FIG. 7A, a disease model was made by treating HK-2 cells (human renal cells) with cisplatin (20 μM), and then treated with a KS1 compound (Example 10) (3 μM). After 24 hours, the expression degree of the klotho protein was confirmed by obtaining the cells.

[6] = tested on: unilateral ureter obstruction model; experiment: Unilateral ureter obstruction (UUO) model; format: in vivo; settings: mice, 20 mg/kg/day into the abdominal cavity
Method: In a unilateral ureter obstruction model, 5-week-old male […] mice were used. After the right ureter was tied with a thread to create a unilateral ureter obstruction model, the KS1 compound (20 mg/kg/day) was injected into the abdominal cavity daily starting 24 hours later. After that, samples were collected by sacrificing the mice on days 7 and 14 and tested (FIG. 8A). H&E staining was performed to investigate changes in the nucleus and cytoplasm in the unilateral ureter obstruction model, and the results are illustrated in FIG. 9. […] In addition, Sirius Red staining was performed to investigate the change according to the progress of fibrosis in the unilateral ureter obstruction model. […] TUNEL staining was performed to investigate the degree of apoptosis in the unilateral ureter obstruction model.

[7] = tested on: chronic kidney disease model; experiment: Chronic kidney disease model (db/db mice, high protein diet); format: in vivo; settings: oral gavage daily 2, 10, 50 mg/kg
Description: For the chronic kidney disease model, 20 db/m mice (10 5-week-old mice, 10 6-week-old mice) and 50 db/db mice (25 5-week-old mice and 25 6-week-old mice) were imported from Jackson Lab, USA, and after the adaptation period, the experiment was started (mouse model number JAX 000642-BKS.Cg-Dock7m+/+Leprdb/j5W/M Wildtype for Dock7m, BKS.Cg-Dock7m+/+Leprdb/j 5W/M Heterozygous for Dock7m). Each group was divided into set1 and set2 due to the large number of mice, with 5-week-old mice as set2, and the experiment was conducted one week later so that all mice were in the experiment from 6 weeks of age. After measuring the body weight, the mice were evenly distributed in each group and fed a normal diet (ND) and a high protein diet (HPD). After 3 weeks on the high protein diet, 2-hour urine samples were collected via a metabolic cage for analysis. […] After 12 weeks of drug administration, mice were sacrificed, and blood and organs were obtained for hematology and tissue analysis. Urine analysis was performed at SCL healthcare center, and blood analysis was performed using I-STAT cartridge (CHEM 8+).
The animals were anesthetized with anesthetic and perfusion-fixed with fixative (Periodate-Lysine-2% paraformaldehyde) through the heart for 8 minutes. Additional fixation was performed at 4° C. for 16 hours or more in the same fixative. After undergoing a dehydration process through an alcohol series, the tissue slides were prepared by embedding in wax and then cutting to 5 μm. After the tissue was hydrated again through the hydration process, it was immersed in a citric acid solution of pH 6 and heated to retrieve the aldehyde-fixed protein. Endogenous peroxidase was then blocked by treatment with 1.7% H2O2 in methanol for 30 minutes, followed by treatment with 0.5% triton X-100 in PBS for 15 minutes to increase the penetration of the antibody. […] Using more than 100 photographs for each group, the expressed areas were quantified using a color image analyzer (TDI Scope Eye version 3.6 for windows; Olympus, Japan) (FIG. 14). […]

[8] = RPTECs, Examples at 0.5, 1 and 5 μM, Comparative Example 1 at 5 μM, FIG. 2

O=C(Nc1ccccc1Cl)c1c[nH]c2ccccc12 [Comparative Example 1, N-(2-chlorophenyl)-1H-indole-3-carboxamide] was tested, and the “luciferase activity (klotho promoter reporter)” value [1] was “the highest”.

In the case of O=C(Nc1nc2ccccc2o1)c1ccc([N+](=O)[O-])cc1Cl [Example 1, N-(benzo[d]oxazol-2-yl)-2-chloro-4-nitrobenzamide], the “expression of the reporter gene (pHKP-luc)” value (from here on “expression … (pHKP-luc)”) [2, 8] is reported as “at a level similar to that of Comparative Example 1”.

With Cc1ccc2oc(Nc3ccc(Cl)c(Cl)c3)nc2c1 [Example 2] the “expression … (pHKP-luc)” value ([2]; RPTEC cells, 5 μM, FIG. 3) was “at a level similar to that of Comparative Example 1”, the “expression … (pHKP-luc)” value [2, 8] was “at a level similar to that of Comparative Example 1” and the “klotho (KL) gene mRNA expression level (real-time PCR)” value (klotho (KL) gene [3]) was “at a level similar to that of Comparative Example 1”.

Fc1ccc(Nc2nc3ccccc3o2)cc1F [Example 10, N-(3,4-difluorophenyl)benzo[d]oxazol-2-amine] was tested, and the “expression level of the klotho (KL) gene, relative to the level of Comparative Example 1” value (klotho (KL) gene [4]) was “about 10 times”, the “improvement of toxicity compared to Comparative Example 1” value [5] was no less than 20% and the “toxicity (cytotoxicity, EZ-Cytox)” value [5] was “the least toxicity”. For the same compound, the “expression of the klotho protein” value (klotho protein; HK-2 cells, cisplatin (20 μM) disease model, then 3 μM compound, 24 hours) was “increased”, the “renal hypertrophy (kidney size)” value ([6]; FIG. 8B) was “no difference in size” and the “nuclear and cytoplasmic changes, tissue destruction (H&E staining)” value ([6]; one-week and two-week samples, FIG. 9) was “a large reduction in tissue destruction”. For the same compound, the klotho protein expression ([6]; one-week sample, FIG. 12) was “increased”, the “fibrosis (Sirius Red staining)” value ([6]; vs UUO model not treated, FIG. 10) was “fibrosis occurred less” and the “apoptosis (TUNEL staining)” value ([6]; vs UUO model not treated, FIG. 11) was “remarkably reduced”. For the same compound, the “MMP-9 protein expression level (inflammation marker)” value ([6]; week 1 and week 2, FIG. 13) was “remarkably reduced”, the “expression of klotho protein (immunohistochemistry, kidney)” value ([7]; 12 weeks, FIG. 14, 15) was “statistically significantly (p<0.05) increased” and the “blood urea nitrogen (BUN)” value ([7]; 12 weeks, FIG. 17) was “statistically significant (p<0.05) decrease”. The “microalbumin level in urine (in proportion to creatinine)” value ([7]; FIG. 16) was “statistically significant (p<0.05) decrease”.

In the case of N.N.[Cl][Pt][Cl] [cisplatin, reference compound], the “expression of the klotho protein” value (klotho protein; HK-2 cells treated with cisplatin (20 μM) alone) is reported as “decreased”.
